The text below walks through data of patent US9388425B2, “Tunable genetic switch for regulating gene expression” (TRUSTEES OF BOSTON UNIVERSITY, priority 2006, dated 2016).

In the data set the test system is Rosa26 cells. Nature of the data set: Apoptosis and cell death, annexin V and propidium iodide staining, flow cytometry, Rosa26 cells. The class given is cell-based, mouse. Particulars: indicated levels of IPTG (0, 250 pM, 2.5 μM, 1 mM). On the procedure: Rosa26fibroblasts were obtained from embryonic day 14.5 Rosa26-R mice. The cells were maintained in embryonic fibroblast medium (high-glucose DMEM, 10% FBS, penicillin/streptomycin, L-glutamine, and sodium pyruvate) and grown in a humidified 5% CO2, 37CC incubator. These cells were transfected with 0.8 μg of LTRi-cre and LTRi-bax using Lipofectamine 2000 reagent (Invitrogen). The LTRi-cre cells were analyzed by β-galactosidase staining 48 hr after transfection. The LTRi-bax cells were stained and analyzed by flow cytometry 48 hr after transfection. […]
Cells were grown in 12-well plates, and 24 hr after plating, they were transfected with 0.8 μg of LTRi-bax using Lipofectamine 2000 reagent (Invitrogen) per the manufacturer's protocol and exposed to the indicated levels of IPTG. […] Annexin V has a high affinity for phosphatidylserine; therefore, annexin V conjugated with Alexa Fluor 488 can identify apoptotic cells by binding to phosphatidylserine and can be analyzed by flow cytometry measuring the fluorescence emission at 530 nm (FL1). […] It is impermeable to live and apoptotic cells but stains dead cells with red fluorescence. Dead cells appear red and can be analyzed by flow cytometry measuring the red florescence emission >575 nm (FL3). […]
(In general: In flow cytometry, cells or beads pass a laser one at a time.)

`CC(C)S[C@@H]1O[C@H](CO)[C@H](O)[C@H](O)[C@H]1O` [IPTG, isopropyl-β-thiogalactopyranoside]: the “apoptosis or cell death of non-transfected cells exposed to inducer” value is “no change in apoptosis or cell death”.
